Results taken from the supplement of paper PMC11208160.

Assay: recombinant barcode read abundance after kanamycin selection (control-corrected) (log10(CPM+1)); higher = more efficient recombination; sequences stand for … in AGTGCAGAGAAAATCGGCCAGTTTTCTCTGCCTGCAGTCCGCATGCCGT…ATTTATGCAGCGGACTGCCTTTCTCCCAAAGTGATAAACCGGACAGTATCATGGACCGGTTTTCCCGGTAATCCGTATTTGCAAGGTTGGTTTCACT; site = the 11-nt target
How it was run: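 Targets were screened in pooled form in E. coli against IS621 bridge RNA target-binding loops. Recombination efficiency is based on barcode counts at recombinant junctions in counts per million, averaged and corrected for the control. Numbers are shown as log10(CPM+1), with duplicate plates on chloramphenicol/ampicillin LB agar (control) or chloramphenicol/ampicillin/kanamycin with 0.1 mM IPTG.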

Q: Which “recombinant barcode read abundance (log10)” value does the source give for “GGTGCCCCTTGGGTTCTAACCTGTTGCCGCT [GGTGCCCCTCG_LTGcore_CT_RTGcore_AG] (site GGTGCCCCTCG) (LTG core: CT, RTG core: AG)” here?
A: 0.0402

Q: Which “recombinant barcode read abundance (log10)” value does the source give for “GGTGCCCCTTGGGTTCTAACCTGTTGCCGGC [GGTGCCCCTCG_LTGcore_CT_RTGcore_GC] (site GGTGCCCCTCG) (LTG core: CT, RTG core: GC)” here?
A: 0.83

Q: Which “recombinant barcode read abundance (log10)” value does the source give for “GGTGCCCCTTGGGTTCTAACCTGTTGCCGGT [GGTGCCCCTCG_LTGcore_CT_RTGcore_AC] (site GGTGCCCCTCG) (LTG core: CT, RTG core: AC)” here?
A: 0.0162

Q: Which “recombinant barcode read abundance (log10)” value does the source give for “GGTGCCCGGTGGGTTCTAACCTGTTGCCGCC [GGTGCCCCTCG_LTGcore_GG_RTGcore_GG] (site GGTGCCCCTCG) (LTG core: GG, RTG core: GG)” here?
A: 0.0147

Q: With “GGTGCCCGTTGGGTTCTAACCTGTTGCCGAG [GGTGCCCCTCG_LTGcore_GT_RTGcore_CT] (site GGTGCCCCTCG) (LTG core: GT, RTG core: CT)” as the sequence, how does the “recombinant barcode read abundance (log10)” value read?
A: 0.0597

Q: For “GGTGCCCTTTGGGTTCTAACCTGTTGCCGAA [GGTGCCCCTCG_LTGcore_TT_RTGcore_TT] (site GGTGCCCCTCG) (LTG core: TT, RTG core: TT)”, which “recombinant barcode read abundance (log10)” value is on record?
A: 0.622

Q: For “GTCGCCCAATGGGTTCTAACCTGTTGCTAAG [GTCGCCCCTTA_LTGcore_AA_RTGcore_CT] (site GTCGCCCCTTA) (LTG core: AA, RTG core: CT)”, which “recombinant barcode read abundance (log10)” value is on record?
A: 0.688

Q: With “GTCGCCCACTGGGTTCTAACCTGTTGCTAAG [GTCGCCCCTTA_LTGcore_AC_RTGcore_CT] (site GTCGCCCCTTA) (LTG core: AC, RTG core: CT)” as the sequence, how does the “recombinant barcode read abundance (log10)” value read?
A: 0.309

Q: With “GTCGCCCCATGGGTTCTAACCTGTTGCTAAG [GTCGCCCCTTA_LTGcore_CA_RTGcore_CT] (site GTCGCCCCTTA) (LTG core: CA, RTG core: CT)” as the sequence, how does the “recombinant barcode read abundance (log10)” value read?
A: 2.04

Q: For “GTCGCCCCCTGGGTTCTAACCTGTTGCTAAG [GTCGCCCCTTA_LTGcore_CC_RTGcore_CT] (site GTCGCCCCTTA) (LTG core: CC, RTG core: CT)”, which “recombinant barcode read abundance (log10)” value is on record?
A: 0.771

Q: Which “recombinant barcode read abundance (log10)” value does the source give for “GTCGCCCCTTGGGTTCTAACCTGTTGCTAAT [GTCGCCCCTTA_LTGcore_CT_RTGcore_AT] (site GTCGCCCCTTA) (LTG core: CT, RTG core: AT)” here?
A: 0.474

Q: Which “recombinant barcode read abundance (log10)” value does the source give for “GTCGCCCCTTGGGTTCTAACCTGTTGCTACG [GTCGCCCCTTA_LTGcore_CT_RTGcore_CG] (site GTCGCCCCTTA) (LTG core: CT, RTG core: CG)” here?
A: 0.323

Q: Which “recombinant barcode read abundance (log10)” value does the source give for “GTCGCCCCTTGGGTTCTAACCTGTTGCTAGA [GTCGCCCCTTA_LTGcore_CT_RTGcore_TC] (site GTCGCCCCTTA) (LTG core: CT, RTG core: TC)” here?
A: 0.304

Q: For “GTCGCCCGCTGGGTTCTAACCTGTTGCTAGC [GTCGCCCCTTA_LTGcore_GC_RTGcore_GC] (site GTCGCCCCTTA) (LTG core: GC, RTG core: GC)”, which “recombinant barcode read abundance (log10)” value is on record?
A: 0.459

Q: Which “recombinant barcode read abundance (log10)” value does the source give for “GTCGCCCTCTGGGTTCTAACCTGTTGCTAAG [GTCGCCCCTTA_LTGcore_TC_RTGcore_CT] (site GTCGCCCCTTA) (LTG core: TC, RTG core: CT)” here?
A: 0

Q: For “TAAGAATACTGGGTTCTAACCTGTTGCCTGT [TAAGAATCTAG_LTGcore_AC_RTGcore_AC] (site TAAGAATCTAG) (LTG core: AC, RTG core: AC)”, which “recombinant barcode read abundance (log10)” value is on record?
A: 0.0208

Q: Which “recombinant barcode read abundance (log10)” value does the source give for “TAAGAATCATGGGTTCTAACCTGTTGCCTAG [TAAGAATCTAG_LTGcore_CA_RTGcore_CT] (site TAAGAATCTAG) (LTG core: CA, RTG core: CT)” here?
A: 0.838

Q: For “TAAGAATCTTGGGTTCTAACCTGTTGCCTAC [TAAGAATCTAG_LTGcore_CT_RTGcore_GT] (site TAAGAATCTAG) (LTG core: CT, RTG core: GT)”, which “recombinant barcode read abundance (log10)” value is on record?
A: 0.116

Q: For “TAAGAATCTTGGGTTCTAACCTGTTGCCTCA [TAAGAATCTAG_LTGcore_CT_RTGcore_TG] (site TAAGAATCTAG) (LTG core: CT, RTG core: TG)”, which “recombinant barcode read abundance (log10)” value is on record?
A: 0.343

Q: With “TAAGAATCTTGGGTTCTAACCTGTTGCCTCC [TAAGAATCTAG_LTGcore_CT_RTGcore_GG] (site TAAGAATCTAG) (LTG core: CT, RTG core: GG)” as the sequence, how does the “recombinant barcode read abundance (log10)” value read?
A: 0.142

Q: With “TAAGAATCTTGGGTTCTAACCTGTTGCCTGT [TAAGAATCTAG_LTGcore_CT_RTGcore_AC] (site TAAGAATCTAG) (LTG core: CT, RTG core: AC)” as the sequence, how does the “recombinant barcode read abundance (log10)” value read?
A: 0.0874

Q: With “TAAGAATGATGGGTTCTAACCTGTTGCCTAG [TAAGAATCTAG_LTGcore_GA_RTGcore_CT] (site TAAGAATCTAG) (LTG core: GA, RTG core: CT)” as the sequence, how does the “recombinant barcode read abundance (log10)” value read?
A: 0.0742

Q: With “TAAGAATGCTGGGTTCTAACCTGTTGCCTGC [TAAGAATCTAG_LTGcore_GC_RTGcore_GC] (site TAAGAATCTAG) (LTG core: GC, RTG core: GC)” as the sequence, how does the “recombinant barcode read abundance (log10)” value read?
A: 0.0564

Q: For “TAAGAATGGTGGGTTCTAACCTGTTGCCTCC [TAAGAATCTAG_LTGcore_GG_RTGcore_GG] (site TAAGAATCTAG) (LTG core: GG, RTG core: GG)”, which “recombinant barcode read abundance (log10)” value is on record?
A: 0.113

Q: Which “recombinant barcode read abundance (log10)” value does the source give for “TAAGAATTCTGGGTTCTAACCTGTTGCCTGA [TAAGAATCTAG_LTGcore_TC_RTGcore_TC] (site TAAGAATCTAG) (LTG core: TC, RTG core: TC)” here?
A: 0.0111

Q: Which “recombinant barcode read abundance (log10)” value does the source give for “TAAGAATTGTGGGTTCTAACCTGTTGCCTCA [TAAGAATCTAG_LTGcore_TG_RTGcore_TG] (site TAAGAATCTAG) (LTG core: TG, RTG core: TG)” here?
A: 0.0917

Q: With “TAGAGGGATTGGGTTCTAACCTGTTGCGGAG [TAGAGGGCTCC_LTGcore_AT_RTGcore_CT] (site TAGAGGGCTCC) (LTG core: AT, RTG core: CT)” as the sequence, how does the “recombinant barcode read abundance (log10)” value read?
A: 0.147

Q: With “TAGAGGGCGTGGGTTCTAACCTGTTGCGGAG [TAGAGGGCTCC_LTGcore_CG_RTGcore_CT] (site TAGAGGGCTCC) (LTG core: CG, RTG core: CT)” as the sequence, how does the “recombinant barcode read abundance (log10)” value read?
A: 2.42

Q: Which “recombinant barcode read abundance (log10)” value does the source give for “TAGAGGGGTTGGGTTCTAACCTGTTGCGGAG [TAGAGGGCTCC_LTGcore_GT_RTGcore_CT] (site TAGAGGGCTCC) (LTG core: GT, RTG core: CT)” here?
A: 0.85

Q: With “TCGCGACATTGGGTTCTAACCTGTTGCCGAT [TCGCGACCTCG_LTGcore_AT_RTGcore_AT] (site TCGCGACCTCG) (LTG core: AT, RTG core: AT)” as the sequence, how does the “recombinant barcode read abundance (log10)” value read?
A: 0.205

Q: For “TCGCGACCCTGGGTTCTAACCTGTTGCCGAG [TCGCGACCTCG_LTGcore_CC_RTGcore_CT] (site TCGCGACCTCG) (LTG core: CC, RTG core: CT)”, which “recombinant barcode read abundance (log10)” value is on record?
A: 0.466

Q: Which “recombinant barcode read abundance (log10)” value does the source give for “TCGCGACCGTGGGTTCTAACCTGTTGCCGCG [TCGCGACCTCG_LTGcore_CG_RTGcore_CG] (site TCGCGACCTCG) (LTG core: CG, RTG core: CG)” here?
A: 0.0313

Q: With “TCGCGACCTTGGGTTCTAACCTGTTGCCGAC [TCGCGACCTCG_LTGcore_CT_RTGcore_GT] (site TCGCGACCTCG) (LTG core: CT, RTG core: GT)” as the sequence, how does the “recombinant barcode read abundance (log10)” value read?
A: 0.201

Q: Which “recombinant barcode read abundance (log10)” value does the source give for “TCGCGACCTTGGGTTCTAACCTGTTGCCGGC [TCGCGACCTCG_LTGcore_CT_RTGcore_GC] (site TCGCGACCTCG) (LTG core: CT, RTG core: GC)” here?
A: 0.0211

Q: With “TCGCGACCTTGGGTTCTAACCTGTTGCCGTG [TCGCGACCTCG_LTGcore_CT_RTGcore_CA] (site TCGCGACCTCG) (LTG core: CT, RTG core: CA)” as the sequence, how does the “recombinant barcode read abundance (log10)” value read?
A: 0.0363

Q: Which “recombinant barcode read abundance (log10)” value does the source give for “TCGCGACGGTGGGTTCTAACCTGTTGCCGAG [TCGCGACCTCG_LTGcore_GG_RTGcore_CT] (site TCGCGACCTCG) (LTG core: GG, RTG core: CT)” here?
A: 0.167

Q: With “TCGCGACTGTGGGTTCTAACCTGTTGCCGAG [TCGCGACCTCG_LTGcore_TG_RTGcore_CT] (site TCGCGACCTCG) (LTG core: TG, RTG core: CT)” as the sequence, how does the “recombinant barcode read abundance (log10)” value read?
A: 0.302

Q: For “TCGCGACTTTGGGTTCTAACCTGTTGCCGAG [TCGCGACCTCG_LTGcore_TT_RTGcore_CT] (site TCGCGACCTCG) (LTG core: TT, RTG core: CT)”, which “recombinant barcode read abundance (log10)” value is on record?
A: 0.282

Q: Which “recombinant barcode read abundance (log10)” value does the source give for “TCTACCCAGTGGGTTCTAACCTGTTGCTGCT [TCTACCCCTCA_LTGcore_AG_RTGcore_AG] (site TCTACCCCTCA) (LTG core: AG, RTG core: AG)” here?
A: 0.24

Q: Which “recombinant barcode read abundance (log10)” value does the source give for “TCTACCCCCTGGGTTCTAACCTGTTGCTGAG [TCTACCCCTCA_LTGcore_CC_RTGcore_CT] (site TCTACCCCTCA) (LTG core: CC, RTG core: CT)” here?
A: 0.0931

Q: Which “recombinant barcode read abundance (log10)” value does the source give for “TCTACCCCTTGGGTTCTAACCTGTTGCTGAG [TCTACCCCTCA_LTGcore_CT_RTGcore_CT] (site TCTACCCCTCA) (LTG core: CT, RTG core: CT)” here?
A: 0.783

Q: Which “recombinant barcode read abundance (log10)” value does the source give for “TCTACCCCTTGGGTTCTAACCTGTTGCTGAT [TCTACCCCTCA_LTGcore_CT_RTGcore_AT] (site TCTACCCCTCA) (LTG core: CT, RTG core: AT)” here?
A: 0.131

Q: With “TCTACCCCTTGGGTTCTAACCTGTTGCTGGA [TCTACCCCTCA_LTGcore_CT_RTGcore_TC] (site TCTACCCCTCA) (LTG core: CT, RTG core: TC)” as the sequence, how does the “recombinant barcode read abundance (log10)” value read?
A: 0.0313

Q: With “TCTACCCCTTGGGTTCTAACCTGTTGCTGTA [TCTACCCCTCA_LTGcore_CT_RTGcore_TA] (site TCTACCCCTCA) (LTG core: CT, RTG core: TA)” as the sequence, how does the “recombinant barcode read abundance (log10)” value read?
A: 0.124

Q: With “TCTACCCGCTGGGTTCTAACCTGTTGCTGGC [TCTACCCCTCA_LTGcore_GC_RTGcore_GC] (site TCTACCCCTCA) (LTG core: GC, RTG core: GC)” as the sequence, how does the “recombinant barcode read abundance (log10)” value read?
A: 0.124
